We go through 24 compounds from patent publication US8193351B2, “HSP90 inhibitor” (Chugai Seiyaku Kabushiki Kaisha, priority 2006, dated 2012).

One assay concerns HCT116 cells. The assay is described as follows: Measurement of cell growth inhibition (Cell Counting Kit-8, four days). The format is cell-based. Conditions: Homo sapiens, HCT-116, 96 h; HCT116 colon cancer cell line, four days culture; read-out: Cell growth inhibitory activity (IC50, μM) HCT116. As to the method: Cell growth inhibitory activities of the compounds of the present invention represented by formula (1) were measured by the following method.
Cells were maintained under conditions recommended by the provider of each cell line. Cells suspended in a medium were added to solutions containing various concentrations of the test substance, and the cells were cultured at 37° C. in a 5% CO2 incubator. Four days later, Cell Counting Kit-8 was added, and absorbance measurements were taken following the protocol included in the kit.

For a further assay, the target named is T1, Human HSP90 alpha (Homo sapiens, UniProt P07900).
T1 construct: made in house; host or cells: E. coli BL21 codon plus (Stratagene)
Put plainly: Measurement of HSP90 enzyme inhibitory activity (ATPase, malachite green). The format is biochemical. Conditions: purified human HSP90 alpha, 1 mM ATP added, 37° C., two hours; read-out: Enzyme inhibitory activity (IC50, μM) Human HSP 90α. As to the method: HSP90 enzyme inhibitory activity of the compounds of the present invention represented by formula (1) was measured by the following method. Among the 6-phenyl-N-phenyl-(1,3,5)triazin/(1,3)pyrimidin-2,4-diamine derivatives which are known LPAAT-β inhibitors, the following two compounds were used as comparative compounds, and their HSP90 enzyme inhibitory activities were measured similarly by the following method.
Introduction of pETHuHSP90a into E. coli (BL21 codon plus; Stratagene) was followed by O/N incubation in the presence of 0.1 mM IPTG, and the collected E. coli cells were disrupted by ultrasonication in a Lysis buffer (50 mM Tris-HCl (pH8.0), 10 mM MgCl2, 0.1% Triton X-100, Protease inhibitor cocktail tablets (Roche Diagnostics)). The cell lysate solution was centrifuged (10,000 rpm×30 minutes), and the supernatant obtained after centrifugation was used as a crude extract. The crude extract was fractionated using HisPrep FF column and HiTrap Q column (Amersham) to prepare a purified enzyme solution.
An enzyme solution for assays was prepared by dilution of the purified enzyme solution using an assay buffer (50 mM Tris HCl pH7.6, 20 mM KCl, 5 mM MgCl2).
10 μL each of various concentrations of the test substances (10% DMSO solution) was added to each well, and for the positive control wells, 10 μL of 10% DMSO was added. 10 μL of 10% DMSO was also added to the negative control well.
10 μL of 1 mM ATP was added to all of the wells, and the reaction was carried out at 37° C. for two hours.

For `Nc1nc(SCCC(=O)NCCO)cc(-c2c(Cl)cc3c4c(cccc24)COC3)n1` [Example 317, 3-[2-amino-6-(5-chloro-1H,3H-benzo[de]isochromen-6-yl)-pyrimidin-4-ylsulfanyl]-N-(2-hydroxy-ethyl)-propionamide], the figures for the IC50 in the assay with HCT116 cells and on Human HSP90 alpha were 0.41 µM and 1.3 µM, respectively.

For the compound `CNC(=O)CCSc1cc(-c2c(Cl)cc3c4c(cccc24)COC3)nc(N)n1` [Example 318, 3-[2-amino-6-(5-chloro-1H,3H-benzo[de]isochromen-6-yl)-pyrimidin-4-ylsulfanyl]-N-methyl-propionamide], the IC50 amounted to 0.22 µM in the assay with HCT116 cells and 1.4 µM on Human HSP90 alpha.

Regarding `COCCNC(=O)CCSc1cc(-c2c(Cl)cc3c4c(cccc24)COC3)nc(N)n1` [Example 319, 3-[2-amino-6-(5-chloro-1H,3H-benzo[de]isochromen-6-yl)-pyrimidin-4-ylsulfanyl]-N-(2-methoxy-ethyl)-propionamide], the half-inhibitory concentration (IC50) stood at 0.62 µM with HCT116 cells and 2.1 µM at Human HSP90 alpha.

`Nc1nc(SCCC(=O)NC[C@@H](O)CO)cc(-c2c(Cl)cc3c4c(cccc24)COC3)n1` [Example 320, 3-[2-amino-6-(5-chloro-1H,3H-benzo[de]isochromen-6-yl)-pyrimidin-4-ylsulfanyl]-N—((R)-2,3-dihydroxy-propyl)-propionamide]: the IC50 in the assay on HCT116 cells worked out at 0.63 µM; at Human HSP90 alpha, 1.4 µM.

Take `CC(CSc1cc(-c2c(Cl)cc3c4c(cccc24)COC3)nc(N)n1)C(N)=O` (stereo not drawn) [Example 321, 3-[2-amino-6-(5-chloro-1H,3H-benzo[de]isochromen-6-yl)-pyrimidin-4-ylsulfanyl]-2-methyl-propionamide]: the IC50 came to 0.13 µM with HCT116 cells and 1.3 µM at Human HSP90 alpha.

As for `CNC(=O)C(C)CSc1cc(-c2c(Cl)cc3c4c(cccc24)COC3)nc(N)n1` (stereo not drawn) [Example 322, 3-[2-amino-6-(5-chloro-1H,3H-benzo[de]isochromen-6-yl)-pyrimidin-4-ylsulfanyl]-2,N-dimethyl-propionamide], the results for the IC50 in the assay with HCT116 cells and at Human HSP90 alpha were 0.08 µM and 1.7 µM, respectively.

Regarding `CC(CSc1cc(-c2c(Cl)cc3c4c(cccc24)COC3)nc(N)n1)C(=O)NCCO` (stereo not drawn) [Example 323, 3-[2-amino-6-(5-chloro-1H,3H-benzo[de]isochromen-6-yl)-pyrimidin-4-ylsulfanyl]-N-(2-hydroxy-ethyl)-2-methyl-propionamide], the IC50 in the assay with HCT116 cells was 0.21 µM; at Human HSP90 alpha, 2.8 µM.

As for `NC(=O)CCCSc1cc(-c2c(Cl)cc3c4c(cccc24)COC3)nc(N)n1` [Example 324, 4-[2-amino-6-(5-chloro-1H,3H-benzo[de]isochromen-6-yl)-pyrimidin-4-ylsulfanyl]-butylamide], the half-maximal inhibitory concentration (IC50) amounted to 0.16 µM with HCT116 cells and 1.8 µM at Human HSP90 alpha.

With `NC(=O)OCCSc1cc(-c2c(Cl)cc3c4c(cccc24)COC3)nc(N)n1` [Example 325, carbamic acid 2-[2-amino-6-(5-chloro-1H,3H-benzo[de]isochromen-6-yl)-pyrimidin-4-ylsulfanyl]-ethyl ester], the figures for the IC50 in the assay on HCT116 cells and on Human HSP90 alpha were 0.26 µM and 2.1 µM, respectively.

Regarding `Nc1nc(SCCCO)cc(-c2c(Cl)cc3c4c(cccc24)COC3)n1` [Example 326, 3-[2-amino-6-(5-chloro-1H,3H-benzo[de]isochromen-6-yl)-pyrimidin-4-ylsulfanyl]-propan-1-ol], the values for the IC50 in the assay with HCT116 cells and on Human HSP90 alpha were 0.52 µM and 2.1 µM, respectively.

Regarding `CC(=O)NCCSc1cc(-c2c(Cl)cc3c4c(cccc24)COC3)nc(N)n1` [Example 327, N-{2-[2-amino-6-(5-chloro-1H,3H-benzo[de]isochromen-6-yl)-pyrimidin-4-ylsulfanyl]-ethyl}-acetamide], the figures for the IC50 with HCT116 cells and at Human HSP90 alpha were 0.93 µM and 2.1 µM, respectively.

As for `CC(=O)NCCCSc1cc(-c2c(Cl)cc3c4c(cccc24)COC3)nc(N)n1` [Example 328, N-{3-[2-amino-6-(5-chloro-1H,3H-benzo[de]isochromen-6-yl)-pyrimidin-4-ylsulfanyl]-propyl}-acetamide], the values for the IC50 in the assay with HCT116 cells and at Human HSP90 alpha were 0.2 µM and 2.1 µM, respectively.

With `CS(=O)(=O)NCCSc1cc(-c2c(Cl)cc3c4c(cccc24)COC3)nc(N)n1` [Example 329, N-{2-[2-amino-6-(5-chloro-1H,3H-benzo[de]isochromen-6-yl)-pyrimidin-4-ylsulfanyl]-ethyl}-methanesulfonamide], the half-inhibitory concentration (IC50) in the assay on HCT116 cells came out at 0.31 µM; at Human HSP90 alpha, 1 µM.

As to `Nc1nc(SCC2CNC(=O)O2)cc(-c2c(Cl)cc3c4c(cccc24)COC3)n1` (stereo not drawn) [Example 330, 5-[2-amino-6-(5-chloro-1H,3H-benzo[de]isochromen-6-yl)-pyrimidin-4-ylsulfanylmethyl]-oxazolidin-2-one], the values for the IC50 in the assay on HCT116 cells and on Human HSP90 alpha were 2.1 µM and 1.2 µM, respectively.

For `Nc1nc(SCCNC(=O)CO)cc(-c2c(Cl)cc3c4c(cccc24)COC3)n1` [Example 331, N-{2-[2-amino-6-(5-chloro-1H,3H-benzo[de]isochromen-6-yl)-pyrimidin-4-ylsulfanyl]-ethyl}-2-hydroxy-acetamide], the IC50 in the assay with HCT116 cells was determined as 1.9 µM; on Human HSP90 alpha, 1.5 µM.

With `NC(=O)NCCSc1cc(-c2c(Cl)cc3c4c(cccc24)COC3)nc(N)n1` [Example 332, {2-[2-amino-6-(5-chloro-1H,3H-benzo[de]isochromen-6-yl)-pyrimidin-4-ylsulfanyl]-ethyl}-urea], the IC50 was 0.47 µM in the assay with HCT116 cells and 2.2 µM at Human HSP90 alpha.

`N#CCNC(=O)CSc1nc(N)nc(-c2c(Cl)cc3c4c(cccc24)COC3)n1` [Example 333, 2-[4-amino-6-(5-chloro-1H,3H-benzo[de]isochromen-6-yl)-[1,3,5]triazin-2-ylsulfanyl]-N-cyano methyl-acetamide]: the figures for the IC50 in the assay with HCT116 cells and at Human HSP90 alpha were 0.38 µM and 1.9 µM, respectively.

Turning to `COCCNC(=O)CCSc1nc(N)nc(-c2c(Cl)cc3c4c(cccc24)COC3)n1` [Example 334, 3-[4-amino-6-(5-chloro-1H,3H-benzo[de]isochromen-6-yl)-[1,3,5]triazin-2-ylsulfanyl]-N-(2-methoxy-ethyl)-propionamide], the IC50 in the assay on HCT116 cells was found to be 0.16 µM; on Human HSP90 alpha, 1.3 µM.

For `Nc1nc(SCCC(=O)NC[C@@H](O)CO)nc(-c2c(Cl)cc3c4c(cccc24)COC3)n1` [Example 335, 3-[4-amino-6-(5-chloro-1H,3H-benzo[de]isochromen-6-yl)-[1,3,5]triazin-2-ylsulfanyl]-N—((R)-2,3-dihydroxy-propyl)-propionamide], the IC50 turned out to be 0.49 µM in the assay on HCT116 cells and 1.2 µM on Human HSP90 alpha.

Take `CNC(=O)C(C)CSc1nc(N)nc(-c2c(Cl)cc3c4c(cccc24)COC3)n1` (stereo not drawn) [Example 337, 3-[4-amino-6-(5-chloro-1H,3H-benzo[de]isochromen-6-yl)-[1,3,5]triazin-2-ylsulfanyl]-2,N-dimethyl-propionamide]: the IC50 in the assay on HCT116 cells turned out to be 0.018 µM; at Human HSP90 alpha it was 1.5 µM.

In the case of `CC(CSc1nc(N)nc(-c2c(Cl)cc3c4c(cccc24)COC3)n1)C(=O)NCCO` (stereo not drawn) [Example 338, 3-[4-amino-6-(5-chloro-1H,3H-benzo[de]isochromen-6-yl)-[1,3,5]triazin-2-ylsulfanyl]-N-(2-hydroxy-ethyl)-2-methyl-propionamide], the IC50 in the assay on HCT116 cells stood at 0.12 µM; on Human HSP90 alpha, 1.5 µM.

For the compound `Nc1nc(SCCCO)nc(-c2c(Cl)cc3c4c(cccc24)COC3)n1` [Example 340, 3-[4-amino-6-(5-chloro-1H,3H-benzo[de]isochromen-6-yl)-[1,3,5]triazin-2-ylsulfanyl]-propan-1-ol], the figures for the IC50 with HCT116 cells and at Human HSP90 alpha were 0.12 µM and 3.3 µM, respectively.

`Nc1nc(SCCNC(=O)CO)nc(-c2c(Cl)cc3c4c(cccc24)COC3)n1` [Example 342, N-{2-[4-amino-6-(5-chloro-1H,3H-benzo[de]isochromen-6-yl)-[1,3,5]triazin-2-ylsulfanyl]-ethyl}-2-hydroxy-acetamide]: the values for the IC50 in the assay on HCT116 cells and at Human HSP90 alpha were 0.49 µM and 1.3 µM, respectively.

On to `NC(=O)CCCSc1nc(N)nc(-c2c(Cl)cc3c4c(cccc24)CSC3)n1` [Example 343, 4-[4-amino-6-(5-chloro-1H,3H-2-thia-phenalen-6-yl)-[1,3,5]triazin-2-ylsulfanyl]-butyramide], for which the IC50 worked out at 0.015 µM in the assay with HCT116 cells and 1.8 µM at Human HSP90 alpha.
